These results are taken from ChEMBL document CHEMBL1201862, “PubChem BioAssay data set” (2004).

Active and inactive are the calls of the source.

Assay [1] has as its target Glucose-6-phosphate 1-dehydrogenase (Homo sapiens, UniProt P11413). Nature of the assay: inhibition of Homo sapiens G6PD, dose series – biochemical, fluorescence, selectivity assay for P. falciparum G6PD inhibitor project, dose response (AID 504792). Format: functional.
Assay [2] in a line: A cytotoxicity screen of small molecule inhibitors of the PhoP region in Salmonella typhi identified in the primary screen. [Related pubchem assays: 1850, 1864, 1985 ]. Type of assay: functional.
Assay [3] deals with T1, Voltage-gated N-type calcium channel alpha-1B subunit/Amyloid beta A4 precursor protein-binding family A member 1 (Homo sapiens, UniProt Q00975+Q02410). Type of assay: protein assay.
Assay [4] concerns the target T1, Voltage-gated N-type calcium channel alpha-1B subunit/Amyloid beta A4 precursor protein-binding family A member 1. Type of assay: protein assay. This is another data set of the same source.
Assay [5] has as its system Vibrio harveyi. Nature of the assay: Quorum Sensing, LuxS, LuxPQ Measured in Microorganism System Using Plate Reader - 2035-01_Inhibitor_DoseNoFile_DryPowder_Activity. [Related pubchem assays (depositor defined):AID2106]. Type of assay: functional, organism-based.
The subject of assay [6] is Vibrio harveyi. In words: LuxS/LuxPQ-dependent luminescence inhibition, V. harveyi – dry powder, set 2, dose response (AID 493072). Format: functional, organism-based.
In assay [7] the target is T2, Kappa-type opioid receptor (Homo sapiens, UniProt P41145). Nature of the assay: SAR analysis of Antagonists of the Kappa Opioid Receptor (KOR) using an Image-Based Assay - Set 4. [Related pubchem assays (depositor defined):AID1777, AID1785]. Format: functional.
In assay [8] the target is T2, Kappa-type opioid receptor. Nature of the assay: SAR analysis of small molecule antagonists of the kappa opioid receptor via a luminescent beta-arrestin assay - Set 3. [Related pubchem assays (depositor defined):AID1777, AID1778, AID1785, AID1786, AID1966, AID2133, AID2136, AID2285, AID2495]. Type of assay: functional.
Another assay deals with Mu-type opioid receptor (Homo sapiens, UniProt P35372). In words: SAR Analysis of Antagonists of the MOR Receptor using an Image-Based Assay - Set 3. [Related pubchem assays (depositor defined):AID1777, AID1785, AID1786, AID1966, AID2133, AID2136, AID2284, AID2285, AID2420]. Type of assay: functional.
In assay [9] the target is Delta-type opioid receptor (Homo sapiens, UniProt P41143). In words: SAR Analysis of Antagonists of the DOR Receptor using an Image-Based Assay - Set 3. [Related pubchem assays (depositor defined):AID1777, AID1785]. Format: functional.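 Note: U2OS cells expressing DOR1 and beta-arrestin GFP stimulated with 100 nM SNC80; imaging of GFP-tagged beta-arrestin moving into spots after receptor activation.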
Assay [10] concerns HEK293. Nature of the assay: cells. Format: functional, cell-based. The note with it: Homo sapiens.
A short description of assay [11]: Trypanosoma cruzi growth suppression in host cells – NIH3T3 host cells, beta-gal luminescence, confirmation (AID 2044).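 Note: intracellular parasites grown in NIH/3T3 mouse fibroblasts as host cells; luminescent beta-galactosidase reporter signal from transgenic T. cruzi replicating inside host cells; inhibitors lower the luminescence signal.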 Format: functional, cell-based.
A short description of assay [12]: NIH3T3 cell viability loss – ATP luminescence, mouse fibroblasts, counter-screen, dose response (AID 2010).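 Note: cells exposed to compound for about 90 hours before reading.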 Type of assay: functional, cell-based.
The test system of assay [13] is HEK293. In words: inhibition of NOD1-driven NF-kB reporter – cell-based, luminescence, uHTS, primary screen (AID 1578). Type of assay: functional. The note with it: Homo sapiens.
The next assay has as its target Mucolipin-3 (Homo sapiens, UniProt Q8TDD5). In words: Fluorescence counterscreen assay for […] agonists: dose response cell-based high-throughput screening assay to identify agonists of the transient receptor potential channel ML3 (TRPML3). [Related pubchem assays: 1424, 1448 ]. Format: functional.
Assay [14] deals with HEK293. Nature of the assay: NOD2 signaling inhibitors in MDP-stimulated cells, cell-based, uHTS, luminescence (AID 2001). Format: functional. The note with it: Homo sapiens.
Assay [15] has as its system HEK293. Nature of the assay: cells. Type of assay: functional, cell-based. The note with it: Homo sapiens. The source holds these as a separate data set.
A further assay concerns the target Ion channel NompC (Danio rerio, UniProt Q7T1G6). In words: Dose response cell-based high-throughput screening assay for agonists of the transient receptor potential channel N1 (TRPN1). [Related pubchem assays (depositor defined):AID1424, AID1448]. Type of assay: functional.
Assay [16] concerns the target T3, Calpain-2 catalytic subunit (Sus scrofa, UniProt P43367).
T3 sequence (P43367 whole entry): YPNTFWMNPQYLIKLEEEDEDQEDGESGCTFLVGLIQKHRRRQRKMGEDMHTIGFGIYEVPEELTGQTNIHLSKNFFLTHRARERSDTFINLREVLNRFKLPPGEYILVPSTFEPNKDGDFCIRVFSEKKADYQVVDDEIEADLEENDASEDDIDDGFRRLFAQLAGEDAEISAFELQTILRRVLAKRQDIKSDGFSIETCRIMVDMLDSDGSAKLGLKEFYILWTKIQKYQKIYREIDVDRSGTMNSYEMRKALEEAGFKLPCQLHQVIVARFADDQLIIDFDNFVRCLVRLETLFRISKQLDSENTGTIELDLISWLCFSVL
Nature of the assay: m-calpain protease blockers, concentration series – biochemical, fluorogenic peptide substrate, dose response (AID 1420). Format: functional.

In the next assay the target is Cytochrome P450 2C19 (Homo sapiens, UniProt P33261). Nature of the assay: Cytochrome panel assay with activity outcomes. Panel member name: p450-cyp2c19 Compounds with AC50 equal or less than 10 uM are considered active. Type of assay: functional. Particulars: read-out: AC50.
In a further assay the target is T4, Coagulation factor XII (Homo sapiens, UniProt P00748).
T4 sequence (P00748 whole entry): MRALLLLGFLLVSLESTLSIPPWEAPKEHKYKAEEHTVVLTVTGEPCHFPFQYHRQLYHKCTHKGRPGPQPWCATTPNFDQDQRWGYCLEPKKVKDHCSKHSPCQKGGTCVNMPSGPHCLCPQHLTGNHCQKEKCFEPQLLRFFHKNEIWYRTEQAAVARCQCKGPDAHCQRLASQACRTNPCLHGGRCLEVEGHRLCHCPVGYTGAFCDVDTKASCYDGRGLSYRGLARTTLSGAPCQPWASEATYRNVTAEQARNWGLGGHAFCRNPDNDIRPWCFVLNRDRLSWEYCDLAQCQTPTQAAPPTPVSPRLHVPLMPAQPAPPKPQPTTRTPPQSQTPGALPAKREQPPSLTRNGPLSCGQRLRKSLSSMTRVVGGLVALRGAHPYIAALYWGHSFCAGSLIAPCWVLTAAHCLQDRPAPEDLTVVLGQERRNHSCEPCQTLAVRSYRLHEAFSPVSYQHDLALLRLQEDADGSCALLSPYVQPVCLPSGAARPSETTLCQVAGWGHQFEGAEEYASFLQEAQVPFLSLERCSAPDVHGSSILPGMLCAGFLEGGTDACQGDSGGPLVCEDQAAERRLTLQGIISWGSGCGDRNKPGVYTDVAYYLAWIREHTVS
In words: activated coagulation factor XII inhibitor potency, concentration-effect curve, cell-free (AID 716). Type of assay: functional.

Assay [17] has as its target G-protein coupled receptor 55 (Homo sapiens, UniProt Q9Y2T6). In words: selective activators of receptor GPR55 – imaging, U2OS cells, beta-arrestin-GFP redistribution, primary screen (AID 1961). Format: functional.

T1 sequence (Q00975 whole entry): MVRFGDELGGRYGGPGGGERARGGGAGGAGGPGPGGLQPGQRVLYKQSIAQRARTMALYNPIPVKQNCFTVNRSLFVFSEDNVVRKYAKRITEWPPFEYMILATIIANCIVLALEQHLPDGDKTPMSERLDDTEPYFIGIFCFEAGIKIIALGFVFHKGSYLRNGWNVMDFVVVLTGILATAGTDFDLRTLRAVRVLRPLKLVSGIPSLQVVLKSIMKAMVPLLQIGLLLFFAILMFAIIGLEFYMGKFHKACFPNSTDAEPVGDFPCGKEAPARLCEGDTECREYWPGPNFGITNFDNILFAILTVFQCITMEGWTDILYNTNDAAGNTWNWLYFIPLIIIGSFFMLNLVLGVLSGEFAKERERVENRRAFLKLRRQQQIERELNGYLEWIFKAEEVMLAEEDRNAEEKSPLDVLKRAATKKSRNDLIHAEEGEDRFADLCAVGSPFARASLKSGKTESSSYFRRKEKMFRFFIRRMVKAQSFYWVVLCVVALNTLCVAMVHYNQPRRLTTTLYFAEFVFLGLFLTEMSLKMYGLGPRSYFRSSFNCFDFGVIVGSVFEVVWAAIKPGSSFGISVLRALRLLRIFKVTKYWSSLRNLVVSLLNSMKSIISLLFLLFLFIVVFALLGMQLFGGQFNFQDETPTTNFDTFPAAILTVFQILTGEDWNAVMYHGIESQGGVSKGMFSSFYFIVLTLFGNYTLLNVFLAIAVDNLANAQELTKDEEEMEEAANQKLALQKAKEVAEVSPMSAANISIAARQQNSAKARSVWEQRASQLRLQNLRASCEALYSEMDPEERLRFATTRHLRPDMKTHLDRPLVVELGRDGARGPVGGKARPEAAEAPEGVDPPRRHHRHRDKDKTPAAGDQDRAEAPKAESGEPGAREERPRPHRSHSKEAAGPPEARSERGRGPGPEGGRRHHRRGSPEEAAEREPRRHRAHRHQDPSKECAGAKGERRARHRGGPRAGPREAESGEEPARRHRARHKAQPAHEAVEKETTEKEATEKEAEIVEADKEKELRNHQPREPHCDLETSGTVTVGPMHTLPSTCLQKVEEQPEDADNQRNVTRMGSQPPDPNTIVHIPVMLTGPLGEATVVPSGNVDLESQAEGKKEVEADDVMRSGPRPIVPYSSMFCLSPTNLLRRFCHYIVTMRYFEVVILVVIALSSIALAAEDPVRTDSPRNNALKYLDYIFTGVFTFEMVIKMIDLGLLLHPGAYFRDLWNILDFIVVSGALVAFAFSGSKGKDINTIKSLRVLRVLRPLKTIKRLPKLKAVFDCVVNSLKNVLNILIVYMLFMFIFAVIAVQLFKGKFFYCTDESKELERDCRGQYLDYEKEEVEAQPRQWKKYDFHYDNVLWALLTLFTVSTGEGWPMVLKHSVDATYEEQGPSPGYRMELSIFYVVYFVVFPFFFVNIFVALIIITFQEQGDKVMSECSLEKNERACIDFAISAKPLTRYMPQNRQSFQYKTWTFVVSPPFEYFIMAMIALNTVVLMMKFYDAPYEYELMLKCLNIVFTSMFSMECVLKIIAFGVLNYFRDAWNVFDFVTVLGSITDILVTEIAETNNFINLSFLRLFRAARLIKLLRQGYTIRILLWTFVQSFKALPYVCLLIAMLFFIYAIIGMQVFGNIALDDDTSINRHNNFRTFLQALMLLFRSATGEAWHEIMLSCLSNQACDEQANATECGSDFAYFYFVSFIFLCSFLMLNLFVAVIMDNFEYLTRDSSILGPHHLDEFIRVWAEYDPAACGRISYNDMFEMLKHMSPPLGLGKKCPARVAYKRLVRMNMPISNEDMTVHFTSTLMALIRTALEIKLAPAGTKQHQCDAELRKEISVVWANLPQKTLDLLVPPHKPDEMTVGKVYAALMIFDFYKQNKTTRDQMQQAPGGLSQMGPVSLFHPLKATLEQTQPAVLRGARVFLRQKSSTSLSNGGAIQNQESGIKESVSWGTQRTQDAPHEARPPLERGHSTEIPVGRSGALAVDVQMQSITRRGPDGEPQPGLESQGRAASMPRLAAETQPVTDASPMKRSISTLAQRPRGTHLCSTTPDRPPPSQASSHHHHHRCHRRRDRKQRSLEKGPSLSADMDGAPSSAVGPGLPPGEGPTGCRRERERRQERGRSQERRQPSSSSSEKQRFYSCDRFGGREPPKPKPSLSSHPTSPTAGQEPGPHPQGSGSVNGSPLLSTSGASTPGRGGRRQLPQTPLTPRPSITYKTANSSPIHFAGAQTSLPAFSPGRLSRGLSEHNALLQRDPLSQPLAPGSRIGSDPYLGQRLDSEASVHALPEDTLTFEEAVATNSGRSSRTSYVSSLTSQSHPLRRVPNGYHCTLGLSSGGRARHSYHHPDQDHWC
T1 sequence (Q02410 whole entry): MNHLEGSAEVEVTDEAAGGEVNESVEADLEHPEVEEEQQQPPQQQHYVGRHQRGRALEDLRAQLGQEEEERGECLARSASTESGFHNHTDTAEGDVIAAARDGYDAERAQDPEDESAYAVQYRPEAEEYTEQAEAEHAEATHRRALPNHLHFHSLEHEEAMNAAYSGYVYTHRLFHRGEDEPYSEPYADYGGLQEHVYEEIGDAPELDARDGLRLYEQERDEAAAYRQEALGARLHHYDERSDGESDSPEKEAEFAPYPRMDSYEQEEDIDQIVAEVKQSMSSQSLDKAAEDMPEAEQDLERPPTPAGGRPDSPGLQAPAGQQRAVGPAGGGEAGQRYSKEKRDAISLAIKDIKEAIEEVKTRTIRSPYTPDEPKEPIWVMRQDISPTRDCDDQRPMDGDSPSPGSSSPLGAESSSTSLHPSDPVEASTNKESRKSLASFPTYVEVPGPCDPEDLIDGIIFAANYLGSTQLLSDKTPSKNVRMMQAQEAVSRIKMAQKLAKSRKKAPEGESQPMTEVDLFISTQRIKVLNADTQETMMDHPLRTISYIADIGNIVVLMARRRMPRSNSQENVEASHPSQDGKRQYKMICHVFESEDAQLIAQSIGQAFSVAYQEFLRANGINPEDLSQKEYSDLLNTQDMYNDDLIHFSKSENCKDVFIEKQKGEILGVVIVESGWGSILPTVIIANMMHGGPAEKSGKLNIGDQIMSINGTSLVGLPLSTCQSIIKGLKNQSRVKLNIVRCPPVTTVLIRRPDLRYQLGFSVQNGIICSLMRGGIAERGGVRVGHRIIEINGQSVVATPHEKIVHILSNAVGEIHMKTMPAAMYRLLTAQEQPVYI
T2 sequence (P41145 whole entry): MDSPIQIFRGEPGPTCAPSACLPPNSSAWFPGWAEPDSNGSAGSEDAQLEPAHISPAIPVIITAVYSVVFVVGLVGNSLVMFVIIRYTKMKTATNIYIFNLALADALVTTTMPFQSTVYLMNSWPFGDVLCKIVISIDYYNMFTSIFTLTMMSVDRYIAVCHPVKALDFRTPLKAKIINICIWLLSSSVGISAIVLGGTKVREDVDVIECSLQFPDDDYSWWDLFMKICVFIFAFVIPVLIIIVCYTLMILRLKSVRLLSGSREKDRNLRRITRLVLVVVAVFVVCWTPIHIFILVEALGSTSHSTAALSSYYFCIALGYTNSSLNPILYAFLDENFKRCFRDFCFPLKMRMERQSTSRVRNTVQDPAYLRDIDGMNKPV
Sequence of Delta-type opioid receptor (P41143 whole entry): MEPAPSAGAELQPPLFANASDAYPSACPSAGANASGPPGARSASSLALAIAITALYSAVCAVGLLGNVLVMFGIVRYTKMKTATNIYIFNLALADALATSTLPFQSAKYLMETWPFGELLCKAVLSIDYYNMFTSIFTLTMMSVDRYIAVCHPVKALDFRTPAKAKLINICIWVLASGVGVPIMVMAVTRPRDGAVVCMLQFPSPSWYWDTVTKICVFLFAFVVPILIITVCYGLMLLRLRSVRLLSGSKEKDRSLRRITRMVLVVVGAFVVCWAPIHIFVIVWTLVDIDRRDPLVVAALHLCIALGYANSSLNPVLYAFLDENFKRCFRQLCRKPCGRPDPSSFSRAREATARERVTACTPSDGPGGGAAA
Sequence of Glucose-6-phosphate 1-dehydrogenase (P11413 whole entry): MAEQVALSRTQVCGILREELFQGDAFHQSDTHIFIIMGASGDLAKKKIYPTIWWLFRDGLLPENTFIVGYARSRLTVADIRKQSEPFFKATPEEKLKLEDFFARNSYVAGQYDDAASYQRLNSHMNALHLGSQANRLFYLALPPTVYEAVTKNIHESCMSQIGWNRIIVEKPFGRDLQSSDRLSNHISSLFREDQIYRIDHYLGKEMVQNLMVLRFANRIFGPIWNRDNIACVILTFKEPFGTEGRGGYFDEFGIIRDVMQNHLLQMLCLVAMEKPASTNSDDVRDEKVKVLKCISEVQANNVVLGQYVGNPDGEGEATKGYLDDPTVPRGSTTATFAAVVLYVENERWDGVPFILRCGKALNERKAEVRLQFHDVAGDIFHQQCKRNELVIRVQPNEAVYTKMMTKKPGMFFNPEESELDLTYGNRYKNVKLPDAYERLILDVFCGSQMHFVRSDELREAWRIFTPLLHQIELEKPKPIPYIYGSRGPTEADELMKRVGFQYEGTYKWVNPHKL
Sequence of Mucolipin-3 (Q8TDD5 whole entry): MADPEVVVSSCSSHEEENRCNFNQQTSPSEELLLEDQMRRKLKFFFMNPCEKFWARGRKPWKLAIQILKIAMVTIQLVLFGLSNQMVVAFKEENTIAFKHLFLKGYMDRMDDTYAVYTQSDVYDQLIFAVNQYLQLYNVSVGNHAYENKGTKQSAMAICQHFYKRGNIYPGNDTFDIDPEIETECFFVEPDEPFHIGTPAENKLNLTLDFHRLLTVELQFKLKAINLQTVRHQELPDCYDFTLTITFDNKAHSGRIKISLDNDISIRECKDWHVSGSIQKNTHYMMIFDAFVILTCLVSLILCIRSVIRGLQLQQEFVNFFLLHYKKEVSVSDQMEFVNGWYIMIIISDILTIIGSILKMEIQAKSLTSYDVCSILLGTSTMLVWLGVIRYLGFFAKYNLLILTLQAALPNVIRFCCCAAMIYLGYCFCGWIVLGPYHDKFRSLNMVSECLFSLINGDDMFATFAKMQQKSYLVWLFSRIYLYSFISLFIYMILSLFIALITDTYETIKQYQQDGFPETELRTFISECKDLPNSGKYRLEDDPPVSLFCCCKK

The term IC50 denotes the point on the concentration scale where inhibition reaches its midpoint. Broadly, the EC50 is the concentration at which the effect is half-maximal. Consider `COc1cc(OC)c(C2CC(=O)N3CN(c4ccccc4)CSC3=C2C#N)cc1OC` (configuration not stated), for which the IC50 in [1] was > 80 µM (inactive); in assay [3] it was > 50 µM (inactive); in assay [4] it was 6.01 µM (active). The concentration giving a half-maximal response (EC50) in assay [2] is > 50 µM (active).
As a reminder, the AC50 is the concentration at which the activity in the assay is half-maximal. `CCc1ccc(S(=O)(=O)Nc2ccc(Br)cn2)cc1`: the concentration at half-maximal activity (AC50) in the assay on Vibrio harveyi [5] was 3.22 µM (active); in the assay with Vibrio harveyi [6] it was 8.16 µM (active).
`COc1ccc(N2CCN(CCCNC(=O)Cn3c(=O)c4cccn4c4cccnc43)CC2)c(OC)c1`: the half-maximal inhibitory concentration (IC50) is 0.49 µM (active) in [7], 2.65 µM (active) in assay [8], 10.8 µM (inactive) on Mu-type opioid receptor and > 32 µM (inactive) in assay [9].
With `O=C(Cc1ccc(Cl)cc1)Nc1ncc([N+](=O)[O-])s1`, the 50% inhibitory concentration (IC50) in the assay on HEK293 [10] is 9.12 µM (active); in the assay with HEK293 [14], 10.9 µM (inactive); in the assay with HEK293 [15], > 20 µM (inactive); in [16] it was < 0.4 µM (not active). Also, the EC50 was 0.589 µM (active) in assay [11]; > 60 µM (inconclusive) in assay [12]; 4.23 µM (active) in the assay with HEK293 [13]; > 29.9 µM (not active) at Mucolipin-3; > 29.9 µM (inactive) on Ion channel NompC.
Turning to `CCOC(=O)N1CCN(C(=O)c2ccc(Cl)c(S(=O)(=O)N3CCOCC3)c2)CC1`, the AC50 at Cytochrome P450 2C19 was 39.8 µM (inconclusive). Besides, the IC50 at Coagulation factor XII is > 50 µM (inactive).
As to `COC(=O)c1c(NC(=O)CN(c2ccccc2)S(C)(=O)=O)sc2c1CCCC2`, in assay [17], the EC50 is 0.577 µM (active).
